{
  "source": "patent US10759740B2",
  "about": "“Antibacterial agents” (Rutgers, The State University of New Jersey, priority 2016, dated 2020)",
  "key": {"[1]": {"system": "biofilms of G. vaginalis", "assay": "Checkerboard assay, biofilm cells", "type": "cell-based, Gardnerella vaginalis", "conditions": "for MBC-B of CAm in combination with metronidazole: 24 h", "method": "For biofilm formation, the overnight culture of G. vaginalis was diluted to approximately 10^7 CFU/ml and 200 μl was transferred into a 96-well tissue culture microplate and incubated anaerobically at 37° C. for 24-36 h. Following biofilm formation and removal of non-adherent cells by washing the biofilm twice with BHIG, each antimicrobial was diluted twofold separately with BHIG broth into two 96-white deep-well microplates. From each dilution of antimicrobial B, 125 μL was added horizontally over 125 μL of antimicrobial A (see FIG. 1 of Algburi et al., 2015. Path Dis 73(5)). From each combination, 200 μL samples were added to the biofilm in sequence, and the microplate was incubated for 24 h at 37° C. under anaerobic conditions. The spot plate method was utilized for counting the number of CFU/ml and evaluating the bactericidal activity (MBC-B) of each antimicrobial combination against biofilm-associated G. vaginalis. Isobolograms were used to analyze the nature of antimicrobial interaction, which is classified as synergistic, antagonistic or additive activity against the planktonic and biofilm cells.\n(§1) Isobolograms were used to compare the MIC and MBC-B values of each antimicrobial alone with its MIC and MBC-B values in combination with other antimicrobials. The point on the axis (X) refers to MIC or MBC-B values of the first antimicrobial with the coordinates (0, x), and the point on the axis (Y) represents the MIC or MBC-B values of the second antimicrobial with the coordinates (y, 0) when they used alone. The two MIC or MBCs-B values are connected by a dashed line (Turovskiy Y, Chikindas M L. 2011 Probiotics Antimicrob Proteins 3:144-149). The MICs or MBCs-B of each antimicrobial combination are plotted as dots on the graph. Results are expressed according to the locations of these dots from the line that connects MICs or MBCs-B of the first and second antimicrobials. When MICs or MBCs-B values are located under the line, the two combining antimicrobials are synergized, but antagonized against the tested microorganism when these dots of interaction are above. An additive effect is observed when these dots are located on the line."}, "[2]": {"system": "G. vaginalis pre-formed biofilm", "assay": "Minimum biofilm bactericidal concentration (MBC-B)", "type": "cell-based, Gardnerella vaginalis", "conditions": "24 h, ≥3 log reduction", "method": "This assay was performed according to Algburi et al. (Algburi et al., 2015. Path Dis 73(5)) with minor modifications: the overnight-grown G. vaginalis was diluted to approximately 10^7 CFU/ml. For the biofilm formation assay, aliquots of 200 μl were added into a 96-well tissue culture microplate, sealed by amplification tape (Nalge Nunc International, Rochester, N.Y., USA) and incubated for 24-36 h at 37° C. After incubation, the planktonic cells were removed by gently washing the biofilm twice with 200 μl of fresh broth. The biofilm was then treated with 200 μl of a predetermined concentration of the tested compound. The microplate was incubated for 24 h at 37° C. under anaerobic conditions. After incubation, the antimicrobials (supernatant) were discarded and the biofilm was washed twice with fresh BHIG broth. The biofilm was then disrupted by vigorous pipetting, in order to determine the number of biofilm-associated cells using the spot plate method."}, "[3]": {"system": "planktonic cells of G. vaginalis", "assay": "Checkerboard assay, planktonic cells", "type": "cell-based, Gardnerella vaginalis", "conditions": "for MIC of CAm in combination with metronidazole: 24 h; for MIC: read-out: MIC when used alone", "method": "To evaluate the potential effectiveness of the antimicrobial combinations on planktonic and biofilm cells, a checkerboard assay was performed following Algburi et al. (Algburi et al., 2015. Path Dis 73(5)) with minor modifications. For planktonic cells, the overnight grown G. vaginalis was diluted to approximately 10^6 CFU/ml. Each antimicrobial agent was diluted twofold with sBHI broth into two separate 96-well non-tissue culture microplates. From each dilution of antimicrobial B, 50 μl was added horizontally over 50 μl of antimicrobial A. Then, 100 μl of bacterial suspension (10^6 CFU/ml) was separately added to the predetermined concentration of antimicrobial combinations. The MIC of each combination was determined after 24 h of incubation.\nas §1"}, "[4]": {"system": "Staphylococcus aureus ATCC 13565", "assay": "Broth microdilution assay (MIC)", "type": "cell-based", "conditions": "BHI broth, 37° C., 24 h, no visible growth", "method": "(§2) From the frozen stock (−80° C.), bacteria were inoculated into brain-hear infusion (BHI) agar (Becton Dickinson, Franklin Lakes, N.J.) and propagated under aerobic conditions at 37° C. for 24 h. After the incubation, one colony of each bacterial strain was transferred to BHI broth (Becton Dickinson, Franklin Lakes, N.J.) and sub-cultured at least twice into BHI before being used in experiments.\n(§3) The minimal inhibitory concentration (MIC) of CAms were identified using a broth microdilution assay modified from previous studies. Briefly, the stock solutions of CAMs were first prepared by dissolving in double-distilled water (ddH2O) and then diluted in BHI broth at pre-determined concentrations. Further serial 2-fold dilutions were performed in a 96-well microplate (Becton Dickinson, Franklin Lakes, N.J.) with BHI broth. The inoculum concentration was adjusted to 5×10^6 CFU/mL with ultraviolet-visible (UV-vis) spectroscopy at 600 nm. An equal volume (100 μL) of bacterial suspension was added to each microplate well with a final volume of 200 μL. Plates were incubated at 37° C. for 24 h under aerobic conditions. The lowest CAm concentration that yielded no visible growth was recorded as the MIC. Cetyltrimethylammonium bromide (CTAB), a cationic amphiphile, served as a positive control that could mimic the proposed bactericidal mechanism of the newly synthesized tartaric acid-based compounds.\n(§4) CAms were evaluated against five selected pathogenic microorganisms, including Gram-positive bacteria (i.e., S. aureus and L. monocytogenes) and Gram-negative bacteria (i.e., E. coli, S. typhimurium, and P. aeruginosa), using a turbidity-based microdilution method. MICs were taken as the lowest concentrations that inhibited the visible bacterial growth. […] The higher MIC values for the Gram-negative bacteria could be attributed to the presence of an additional lipopolysaccharide layer, which forms a hydrophilic barrier that could prevent penetration of the highly hydrophobic CAms."}, "[5]": {"system": "Listeria monocytogenes Scott A", "assay": "Broth microdilution assay (MIC)", "type": "cell-based", "conditions": "BHI broth, 37° C., 24 h, no visible growth", "method": "as §2, §3, §4"}, "[6]": {"system": "Escherichia coli O157:H7", "assay": "Broth microdilution assay (MIC)", "type": "cell-based", "conditions": "BHI broth, 37° C., 24 h, no visible growth", "method": "as §2, §3, §4"}, "[7]": {"system": "Pseudomonas aeruginosa ATCC 15442", "assay": "Broth microdilution assay (MIC)", "type": "cell-based", "conditions": "BHI broth, 37° C., 24 h, no visible growth", "method": "as §2, §3, §4"}},
  "data": [
    {"smiles": "CCCCCCCCCCOC(C(=O)NCCN)C(OCCCCCCCCCC)C(=O)NCCN.Cl.Cl", "note": "(stereo not drawn) [5b]", "values": [
      {"measurement": "MBC-B of CAm when used alone", "setting": "[1]", "result": 340, "unit": "µM"},
      {"measurement": "MBC-B of CAm in combination with metronidazole", "setting": "[1]", "result": 25.7, "unit": "µM"},
      {"measurement": "MBC-B G. vaginalis", "setting": "[2]", "result": 425.6, "unit": "µM"},
      {"measurement": "MIC of CAm in combination with metronidazole", "setting": "[3]", "result": 0.2, "unit": "µM"},
      {"measurement": "MIC", "setting": "[3]", "result": 1.1, "unit": "µM"},
      {"measurement": "MIC S. aureus (G+)", "setting": "[4]", "result": 0.95, "unit": "µg/mL"},
      {"measurement": "MIC L. monocytogenes (G+)", "setting": "[5]", "result": 0.95, "unit": "µg/mL"},
      {"measurement": "MIC E. coli (G−)", "setting": "[6]", "result": 3.9, "unit": "µg/mL"},
      {"measurement": "MIC P. aeruginosa (G−)", "setting": "[7]", "result": 3.9, "unit": "µg/mL"}
    ]},
    {"smiles": "CCCCCCCC(=O)OC(C(=O)NCCN)C(OC(=O)CCCCCCC)C(=O)NCCN.Cl.Cl", "note": "(stereo not drawn) [8a]", "values": [
      {"measurement": "MBC-B of CAm when used alone", "setting": "[1]", "result": 92.7, "unit": "µM"},
      {"measurement": "MBC-B of CAm in combination with metronidazole", "setting": "[1]", "result": 26.9, "unit": "µM"},
      {"measurement": "MBC-B G. vaginalis", "setting": "[2]", "result": 117.6, "unit": "µM"},
      {"measurement": "MIC of CAm in combination with metronidazole", "setting": "[3]", "result": 3.4, "unit": "µM"},
      {"measurement": "MIC", "setting": "[3]", "result": 24.4, "unit": "µM"},
      {"measurement": "MIC S. aureus (G+)", "setting": "[4]", "result": 31.2, "unit": "µg/mL"},
      {"measurement": "MIC L. monocytogenes (G+)", "setting": "[5]", "result": 31.2, "unit": "µg/mL"},
      {"measurement": "MIC E. coli (G−)", "setting": "[6]", "result": 62.5, "unit": "µg/mL"},
      {"measurement": "MIC P. aeruginosa (G−)", "setting": "[7]", "result": 31.2, "unit": "µg/mL"}
    ]},
    {"smiles": "CCCCCCCCCC(=O)OC(C(=O)NCCN)C(OC(=O)CCCCCCCCC)C(=O)NCCN.Cl.Cl", "note": "(stereo not drawn) [8b]", "values": [
      {"measurement": "MBC-B of CAm when used alone", "setting": "[1]", "result": 67.7, "unit": "µM"},
      {"measurement": "MBC-B of CAm in combination with metronidazole", "setting": "[1]", "result": 6.3, "unit": "µM"},
      {"measurement": "MBC-B G. vaginalis", "setting": "[2]", "result": 425.6, "unit": "µM"},
      {"measurement": "MIC of CAm in combination with metronidazole", "setting": "[3]", "result": 0.2, "unit": "µM"},
      {"measurement": "MIC", "setting": "[3]", "result": 10, "unit": "µM"},
      {"measurement": "MIC S. aureus (G+)", "setting": "[4]", "result": 1.9, "unit": "µg/mL"},
      {"measurement": "MIC L. monocytogenes (G+)", "setting": "[5]", "result": 1.9, "unit": "µg/mL"},
      {"measurement": "MIC E. coli (G−)", "setting": "[6]", "result": 3.9, "unit": "µg/mL"},
      {"measurement": "MIC P. aeruginosa (G−)", "setting": "[7]", "result": 3.9, "unit": "µg/mL"}
    ]}
  ]
}
